Results as given in patent US10889587B2, “Tebipenem pivoxil crystalline forms, compositions including the same, methods of manufacture, and methods of use” (SPERO THERAPEUTICS, INC., priority 2017, dated 2021).

Columns and labels:
[1] = GVS (Gravimetric Vapor Sorption) and XRPD analysis post GVS; type: physicochemical
[2] = Storage stability: XRPD and HPLC analysis post storage at 40° C./75% RH or 25° C./97% RH; type: physicochemical; settings: three days
Description: Samples were run under ambient conditions as flat plate specimens using powder as received. The sample was gently packed into a cavity cut into polished, zero-background (510) silicon wafer. The sample was rotated in its own plane during analysis.

Hygroscopicity by GVS [1]	GVS uptake ([1]; from 0 to 90% RH)	Appearance post storage [2]	SMILES
hygroscopic	10.0%	–	CS(=O)(=O)O.C[C@@H](O)[C@H]1C(=O)N2C(C(=O)OCOC(=O)C(C)(C)C)=C(SC3CN(C4=NCCS4)C3)[C@H](C)[C@H]12 [Example 8, Tebeipenem Pivoxil Methane Sulfonate Salt (MSA)]
–	–	deliquesced	CC(O)C1C(=O)N2C(C(=O)OCOC(=O)C(C)(C)C)=C(SC3CN(C4=NCCS4)C3)C(C)C12.O=S(=O)(O)CCS(=O)(=O)O (stereo not drawn) [Example 13, Tebipenem Pivoxil Edisylate (EDSA) Salt]
